In ChEMBL document CHEMBL2151011, “Substituted pyridines as sodium channel blockers: patent highlight” (ACS Med Chem Lett, 2012) one finds Ki and IC50 data, which are given here for one compound.

Assay [1] concerns the target T1, Sodium channel protein type 9 subunit alpha (Homo sapiens, UniProt Q15858). As to the kind of experiment: Blockade of Nav1.7 by electrophysiological patch clamp assay. (Patch clamp records ionic current or voltage across a cell membrane.)
In assay [2] the target is T1, Sodium channel protein type 9 subunit alpha. As to the kind of experiment: Blockade of Nav1.7 by FLIPR TETRA sodium dye assay in presence of KCl salt.

T1 sequence (Q15858 whole entry): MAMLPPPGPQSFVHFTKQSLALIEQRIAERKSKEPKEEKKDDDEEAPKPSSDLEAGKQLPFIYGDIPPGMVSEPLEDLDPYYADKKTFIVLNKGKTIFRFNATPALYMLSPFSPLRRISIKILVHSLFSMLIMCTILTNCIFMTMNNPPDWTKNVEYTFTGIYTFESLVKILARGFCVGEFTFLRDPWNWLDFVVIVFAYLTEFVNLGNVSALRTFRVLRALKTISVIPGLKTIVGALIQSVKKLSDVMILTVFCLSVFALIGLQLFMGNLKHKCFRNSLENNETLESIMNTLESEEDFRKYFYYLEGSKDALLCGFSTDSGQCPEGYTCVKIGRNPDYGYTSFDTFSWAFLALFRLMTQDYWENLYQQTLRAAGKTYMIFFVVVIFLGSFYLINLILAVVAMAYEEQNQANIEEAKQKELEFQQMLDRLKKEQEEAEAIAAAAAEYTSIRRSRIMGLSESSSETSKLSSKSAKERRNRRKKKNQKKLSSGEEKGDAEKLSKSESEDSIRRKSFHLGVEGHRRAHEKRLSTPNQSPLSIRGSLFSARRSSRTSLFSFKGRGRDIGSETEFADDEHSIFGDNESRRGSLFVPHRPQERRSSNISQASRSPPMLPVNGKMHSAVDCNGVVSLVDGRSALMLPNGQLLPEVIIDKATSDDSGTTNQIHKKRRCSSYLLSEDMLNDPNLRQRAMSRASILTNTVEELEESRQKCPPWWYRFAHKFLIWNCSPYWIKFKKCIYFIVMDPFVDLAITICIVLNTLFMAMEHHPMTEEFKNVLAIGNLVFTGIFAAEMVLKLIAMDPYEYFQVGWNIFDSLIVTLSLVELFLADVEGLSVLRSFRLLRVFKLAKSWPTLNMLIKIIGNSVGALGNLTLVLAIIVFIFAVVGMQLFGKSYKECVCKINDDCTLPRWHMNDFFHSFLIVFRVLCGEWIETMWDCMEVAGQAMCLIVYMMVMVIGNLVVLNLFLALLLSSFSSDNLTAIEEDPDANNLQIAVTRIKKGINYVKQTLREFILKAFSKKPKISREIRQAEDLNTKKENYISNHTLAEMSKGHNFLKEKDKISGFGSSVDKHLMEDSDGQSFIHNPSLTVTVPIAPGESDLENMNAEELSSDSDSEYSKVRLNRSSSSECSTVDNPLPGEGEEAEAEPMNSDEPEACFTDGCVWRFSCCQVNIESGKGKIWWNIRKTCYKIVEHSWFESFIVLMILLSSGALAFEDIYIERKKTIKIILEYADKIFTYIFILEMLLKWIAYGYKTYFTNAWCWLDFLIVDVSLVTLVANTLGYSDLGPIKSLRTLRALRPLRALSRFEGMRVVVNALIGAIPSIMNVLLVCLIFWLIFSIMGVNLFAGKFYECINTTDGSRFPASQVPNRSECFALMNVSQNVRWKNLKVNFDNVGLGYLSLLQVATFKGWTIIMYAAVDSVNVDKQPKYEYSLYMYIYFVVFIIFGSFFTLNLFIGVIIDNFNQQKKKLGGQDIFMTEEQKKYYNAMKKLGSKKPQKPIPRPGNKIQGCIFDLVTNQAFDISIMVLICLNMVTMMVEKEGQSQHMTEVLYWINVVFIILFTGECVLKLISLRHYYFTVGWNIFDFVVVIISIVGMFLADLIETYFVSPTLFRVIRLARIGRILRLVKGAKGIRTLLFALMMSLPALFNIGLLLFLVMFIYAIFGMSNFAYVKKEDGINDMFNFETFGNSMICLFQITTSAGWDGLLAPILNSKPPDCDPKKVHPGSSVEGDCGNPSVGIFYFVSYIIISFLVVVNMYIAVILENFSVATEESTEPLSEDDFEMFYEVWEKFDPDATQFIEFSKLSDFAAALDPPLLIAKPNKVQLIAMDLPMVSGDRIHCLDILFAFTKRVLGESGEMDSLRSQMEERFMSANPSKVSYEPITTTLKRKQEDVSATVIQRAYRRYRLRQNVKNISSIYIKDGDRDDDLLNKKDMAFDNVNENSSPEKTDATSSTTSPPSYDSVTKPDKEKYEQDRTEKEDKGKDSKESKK

The compound `O=C(N[C@@H](CO)C(=O)Nc1cccc(-c2ccc(Oc3ccc(F)cc3)cc2)n1)c1ccccn1` showed an inhibitory constant (Ki) in assay [1] of 195 nM. Besides, the IC50 in assay [2] turned out to be 140 nM.

As usually defined, the Ki is a dissociation constant, usually derived from enzyme kinetics or from competition with a known ligand. Read a low Ki as higher affinity. By IC50 is commonly meant the concentration that gives 50% inhibition.
